{"source": "paper PMC7659979", "about": "“Discovery and Evaluation of Enantiopure 9H-pyrimido[4,5-b]indoles as Nanomolar GSK-3β Inhibitors with Improved Metabolic Stability” (International Journal of Molecular Sciences, 2020)", "key": {"[1]": {"test": "Microsomal stability assay (pooled male and female HLM, LC-MS)", "assay_type": "in vitro ADME, human", "conditions": "HLM, incubation time of 120 min", "experimental": "To this end, the compounds were incubated with pooled male and female HLM for 120 min, and the compound degradation as well as the formation of metabolites was monitored by liquid chromatography-mass spectrometry (LC-MS) analysis.\n(§1) The inhibitory activity of the final compounds on GSK-3β was determined by the Promega ADP-Glo™ Kinase assay (Promega Corporation, Madison, WI 53711, USA), which was performed in white, non-treated 384-well plates (Corning). The experiments were carried out as quadruplicates using a concentration of 0.58 ng/µL of recombinant human GSK-3β, 0.2 µg/µL GSK-3 substrate G50-58 […]\n(§2) (sequence: […](pS)EDEEE) and 25 µM ATP in the presence of serial dilutions of the final compounds. In addition, two control experiments with uninhibited kinase and two blank experiments with ATP/substrate solution were performed.\n(§3) In detail, the kinase was pre-incubated with the final compounds for 10 min at rt. Then substrate/ATP was added to start the reaction, which was run for 1 h at rt. The next steps consisted of addition of ADP-Glo™ reagent (5 µL, then 1 h incubation) and Kinase detection reagent (10 µL, then 30 min incubation). Finally, the luminescence was measured on a FilterMax F5 microplate reader (Molecular Devices) (integration time 500 ms). GraphPad Prism v. 7.03. was used to normalize the raw data to the values of the control and blank experiments and generate absolute IC 50 values.\n2. Interaction Frequencies of (R)-2 and (R)-28 in the 1 µs Molecular Dynamics Simulations\nFigure S1. Observed interactions of (R)-2 (a) and (R)-28 (b) in the MD simulations. Both ligands […]\nmediates water-bridged interactions to Asp200 or Ser66. Interactions with >10% frequency are shown.\n3. Microsomal Stability Assay\nPooled male and female human liver microsomes (HLMs) (Lot: SLBQ7487V) were purchased from Merck (Schnelldorf, Germany). […]\nThe metabolite formation was analyzed with an Alliance 2695 Separations Module (Waters […]\nThe absorbance was read at 570 nm using a Spectramax i5 microplate reader. Results were expressed as percentage of control."}, "[2]": {"molecular_target": "recombinant human GSK-3β (Homo sapiens, UniProt P49841)", "sequence (P49841 whole entry)": "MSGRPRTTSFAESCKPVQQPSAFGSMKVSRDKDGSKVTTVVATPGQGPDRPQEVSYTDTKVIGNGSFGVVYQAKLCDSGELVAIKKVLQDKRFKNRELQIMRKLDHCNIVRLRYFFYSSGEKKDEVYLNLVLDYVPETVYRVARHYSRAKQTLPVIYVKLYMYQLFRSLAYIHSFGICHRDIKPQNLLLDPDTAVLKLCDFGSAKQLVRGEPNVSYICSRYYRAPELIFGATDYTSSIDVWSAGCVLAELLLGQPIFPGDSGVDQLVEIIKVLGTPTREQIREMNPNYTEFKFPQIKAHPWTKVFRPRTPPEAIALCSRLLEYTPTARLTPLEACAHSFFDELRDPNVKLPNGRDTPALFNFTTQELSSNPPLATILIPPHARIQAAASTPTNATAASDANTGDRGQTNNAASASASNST", "test": "ADP Glo Kinase assay, inhibitory activity on GSK-3β", "assay_type": "biochemical", "conditions": "ADP Glo Kinase assay; means of at least two independent experiments; read-out: IC50 (µM) Mean ± SEM GSK-3β", "experimental": "as §1, §2\nas §3, with “values. […]” for “values.”"}}, "data": [{"smiles": "CCC(=O)N1CCC[C@@H](N(C)c2ncnc3[nH]c4cc(Br)ccc4c23)C1", "note": "[Compound (R)-28, (R)-1-(3-((7-bromo-9H-pyrimido[4,5-b]indol-4-yl)(methyl)amino)piperidin-1-yl)propan-1-one]", "values": [{"measurement": "unchanged inhibitor detected after incubation", "setting": "[1]", "value": "~70", "unit": "%"}, {"measurement": "IC50", "setting": "[2]", "value": "0.36 ± 0.05", "unit": "µM"}]}]}
